Data reported in patent US8187884B2, “Method of enhancing homologous recombination of somatic cells and method of constructing specific antibody” (Riken, priority 2002, dated 2012).

Tests used:
Type in all cases: cell-based, chicken
[1] = system: VJ region of antibody light chain gene in DT40 cell line (3H12); test: MNase sensitivity (indirect end labeling, Southern blot) of antibody light chain gene chromatin after TSA treatment; conditions: 3H12 cells incubated 8 hours with TSA 0.625, 1.25, 2.5 ng/ml; MNase 0.04-1 U
Protocol: Whether an alteration of the chromatin structure of the antibody light chain gene has actually been produced by TSA was analyzed using indirect end labeling with micrococcal nuclease (MNase) sensitivity as an indicator. Among chicken antibody alleles, one is VJ rearranged and the other one is not rearranged, but it is known that actually functional in antibody production is VJ rearranged one. However, since both sequences are almost identical, it is difficult to analyze VJ rearranged allele of wild type DT40 cells by simple application of indirect end labeling method. In order to solve this problem, on the side for which VJ recombination has not occurred, a mutant of which sequences in the vicinity of the region to be used as a Southern hybridization probe is deleted is generated, and an analysis of MNase sensitivity using this mutant was performed. […]
The nuclear pellet was resuspended in 10 ml RSB (10 mM Tris-HCl (pH7.5), 10 mM NaCl, 1.5 mM MgCl2, 0.5 mM DTI. 1 mM PMSF). […] The DNA concentration of this nuclear suspension was measured by Hoechst 33258 binding, and suspension corresponding to 100 μg was made into […] with RSB. […]

[2] = system: DT40 cells; test: Sequence analysis of antibody light chain gene variable region (somatic homologous recombination)
Protocol: DT40 cells were incubated at 39.5 degrees C. in a CO2 constant temperature oven in 5% CO2. IMDM medium (Invitrogen) was utilized as the medium, with 10% FBS, 1% chicken serum, 100 units/ml penicillin, 100 μg/ml streptomycin, and 55 μM 2-mercaptoethanol added. Additionally, for trichostatin A (Wako Pure Chemical Industries), this was dissolved to 5 mg/ml in methanol for stock, and this was used by diluting in an appropriate medium until the final concentration was 1.25 ng/ml.
(§1) At this time, a medium with 1.25 ng/ml trichostatin A added, and a medium with this not added, were prepared. This was incubated until single colonies appeared, and 5 clones (For No TSA, 6 clones) were transferred to a 6 well plate with 2 ml of fresh medium inside. At this time, incubation was continued by maintaining the original TSA concentration, and maintaining the cell concentration at 10^5-10^6 cells/ml.
With the abovementioned method, live cells of DT40 that were incubated for 3 weeks were recovered by fluorescence-activated cell sorter. With an EPICS ELITE ESP, 100 000 live cells were collected in a 1.5 ml tube. […]
PCR (Perkin Elmer 9600) was utilized for the amplification of the antibody light chain gene variable region. […] Plasmids were extracted, and the sequence was analyzed by an ABI PRI SM 377 DNA Sequencer (Perkin Elmer).

[3] = system: IgM(-) DT40 cells; test: IgM expression by FACS (appearance frequency of IgM(+) cells); conditions: 1.25 ng/ml trichostatin A, measured every other week by FACS
Protocol: as §1
Culture fluid containing approximately 10^6 IgM(−) cells on which trichostatin A treatment was done by the method described in Embodiment 2 was put in 1.5 ml tubes, said cells were recovered by centrifuging (1000 g, 5 minutes), and suspended in 200 μl of staining buffer (PBS, 0.3% BSA). The cells were recovered by centrifuging again, then suspended in 200 μl of FITC-labeled anti chicken IgM antibody (BETHYL) diluted to 1/250 fold with a staining buffer, and reacted for 1 hour on ice. The cells were recovered by centrifuging, then the cells were washed by suspending them again in 200 μl of staining buffer, and centrifuging this. After repeating this washing step one more time, the cells were suspended in 100 μl of staining buffer containing 5 μg/ml of propidium iodide (Nakarai). The fraction of cells expressing IgM was calculated by measuring 10 000 cells with an EPICS ELITE ESP (Beckman Coulter). At this time, cells stained by propidium iodide were gated out as dead cells.

SMILES: CC(/C=C/C(=O)NO)=C\[C@@H](C)C(=O)c1ccc(N(C)C)cc1 [trichostatin A]
- accessibility of MNase to the VJ regions [1]: increased
- chromatin structure of the VJ regions [1]: relaxed
- diversity of antibody light chain genes ([2]; DT40 cells cultured 3 weeks with 1.25 ng/ml trichostatin A vs absence): rose markedly
- number of sequence types of antibody light chain gene variable region among 42 samples ([2]; DT40 cells cultured 3 weeks with 1.25 ng/ml trichostatin A, 42 samples): 16 types
- fraction of cells expressing IgM (IgM(+) cells) [3]: increased time dependently
